According to ChEMBL document CHEMBL5370558, “Modifications of geldanamycin via CuAAC altering affinity to chaperone protein Hsp90 and cytotoxicity” (Eur J Med Chem, 2023):

Columns and labels:
SK-BR-3 = assay: Anticancer activity against human SK-BR-3 cells assessed as cell growth inhibition incubated for 72 hrs by SRB assay; format: functional, cell-based; details: Homo sapiens, SK-BR-3, 72 h
PC-3 = assay: Anticancer activity against human PC-3 cells assessed as cell growth inhibition incubated for 72 hrs by SRB assay; format: functional, cell-based; details: Homo sapiens, PC-3, 72 h
[1] = Selectivity index, ratio of IC50 for cytotoxicity against human HDF cells to IC50 for anticancer activity against human SK-BR-3 cells; format: toxicity, cell-based; details: HDF cells versus SK-BR-3 cells, read-out: Ratio IC50
[2] = Selectivity index, ratio of IC50 for cytotoxicity against human HDF cells to IC50 for anticancer activity against human SK-OV-3 cells; format: cell-based; details: HDF cells versus SK-OV-3 cells, read-out: Ratio IC50
SK-OV-3 = assay: Anticancer activity against human SK-OV-3 cells assessed as cell growth inhibition incubated for 72 hrs by SRB assay; format: functional, cell-based; details: Homo sapiens, SK-OV-3, 72 h
[3] = Cytotoxicity against human HDF cells assessed as cell growth inhibition incubated for 72 hrs by SRB assay; format: toxicity, cell-based; details: HDF cells (normal human dermal fibroblasts, NHDF)
[4] = Selectivity index, ratio of IC50 for cytotoxicity against human HDF cells to IC50 for anticancer activity against human PC-3 cells; format: toxicity, cell-based; details: HDF cells versus PC-3 cells, read-out: Ratio IC50
[5] = target: Heat shock protein HSP 90-alpha (Homo sapiens) (UniProt P07900)
Description: Binding affinity to recombinant human HSP90alpha assessed as change in entropy by isothermal titration calorimetry assay

SMILES | IC50 (SK-BR-3) [nM] | IC50 (PC-3) [nM] | selectivity ratio [1] | selectivity ratio [2] | IC50 (SK-OV-3) [nM] | IC50 at 72 h [3] [nM] | selectivity ratio [4] | TdeltaS [5] [kcal/mol]
CO[C@H]1/C=C\C=C(/C)C(=O)NC2=CC(=O)C(NCc3cn([C@@H]4O[C@H](CO)[C@@H](O)[C@H](O)[C@H]4NC(C)=O)nn3)=C(C[C@@H](C)C[C@H](OC)[C@H](O)[C@@H](C)/C=C(\C)[C@@H]1OC(N)=O)C2=O | 1750 | 1840 | 1.85 | 1.15 | 1860 | 2130 | 1.16 | –
CO[C@H]1/C=C\C=C(/C)C(=O)NC2=CC(=O)C(NCc3cn(Cc4ccc(Cl)cc4)nn3)=C(C[C@@H](C)C[C@H](OC)[C@H](O)[C@@H](C)/C=C(\C)[C@@H]1OC(N)=O)C2=O | 240 | 230 | – | – | 230 | 440 | – | -0.86
CO[C@H]1/C=C\C=C(/C)C(=O)NC2=CC(=O)C(NCCn3cc(-c4ccccn4)nn3)=C(C[C@@H](C)C[C@H](OC)[C@H](O)[C@@H](C)/C=C(\C)[C@@H]1OC(N)=O)C2=O | 1160 | 1210 | 2.08 | 1.85 | 1300 | 2410 | 1.99 | –
CO[C@H]1/C=C\C=C(/C)C(=O)NC2=CC(=O)C(NCc3cn(CC=C(C)C)nn3)=C(C[C@@H](C)C[C@H](OC)[C@H](O)[C@@H](C)/C=C(\C)[C@@H]1OC(N)=O)C2=O | 2030 | 2770 | 1.57 | 1.47 | 2160 | 3180 | 1.15 | –
CO[C@H]1/C=C\C=C(/C)C(=O)NC2=CC(=O)C(NCc3cn(Cc4ccc([N+](=O)[O-])o4)nn3)=C(C[C@@H](C)C[C@H](OC)[C@H](O)[C@@H](C)/C=C(\C)[C@@H]1OC(N)=O)C2=O | 2120 | 2150 | 1.8 | 1.83 | 2090 | 3820 | 1.78 | –
CCN(CC)CCn1cc(CNC2=C3C[C@@H](C)C[C@H](OC)[C@H](O)[C@@H](C)/C=C(\C)[C@H](OC(N)=O)[C@@H](OC)/C=C\C=C(/C)C(=O)NC(=CC2=O)C3=O)nn1 | 590 | 510 | 1.63 | 1.85 | 520 | 960 | 1.88 | –
CO[C@H]1/C=C\C=C(/C)C(=O)NC2=CC(=O)C(NCc3cn(C4CCCCCC4)nn3)=C(C[C@@H](C)C[C@H](OC)[C@H](O)[C@@H](C)/C=C(\C)[C@@H]1OC(N)=O)C2=O | 1030 | 1050 | 1.65 | 1.52 | 1120 | 1700 | 1.62 | –
CO[C@H]1/C=C\C=C(/C)C(=O)NC2=CC(=O)C(NCc3cn(Cc4ccccc4)nn3)=C(C[C@@H](C)C[C@H](OC)[C@H](O)[C@@H](C)/C=C(\C)[C@@H]1OC(N)=O)C2=O | 500 | 520 | 2.56 | 2.03 | 630 | 1280 | 2.46 | –
CO[C@H]1/C=C\C=C(/C)C(=O)NC2=CC(=O)C(NCc3cn(Cc4ccc(Br)cc4)nn3)=C(C[C@@H](C)C[C@H](OC)[C@H](O)[C@@H](C)/C=C(\C)[C@@H]1OC(N)=O)C2=O | 370 | 310 | 1.76 | 2.41 | 270 | 650 | 2.1 | –
CO[C@H]1/C=C\C=C(/C)C(=O)NC2=CC(=O)C(NCc3cn(Cc4ccsc4Br)nn3)=C(C[C@@H](C)C[C@H](OC)[C@H](O)[C@@H](C)/C=C(\C)[C@@H]1OC(N)=O)C2=O | 1050 | 1130 | 1.65 | 1.7 | 1020 | 1730 | 1.53 | –
CO[C@H]1/C=C\C=C(/C)C(=O)NC2=CC(=O)C(NCc3cn(CCN4C(=O)c5ccccc5C4=O)nn3)=C(C[C@@H](C)C[C@H](OC)[C@H](O)[C@@H](C)/C=C(\C)[C@@H]1OC(N)=O)C2=O | 1220 | 1290 | 1.61 | 1.53 | 1280 | 1960 | 1.52 | –
CO[C@H]1/C=C\C=C(/C)C(=O)NC2=CC(=O)C(NCc3cn(CC4CCCCC4)nn3)=C(C[C@@H](C)C[C@H](OC)[C@H](O)[C@@H](C)/C=C(\C)[C@@H]1OC(N)=O)C2=O | 1370 | 1370 | 1.53 | 1.48 | 1410 | 2090 | 1.53 | –
CO[C@H]1/C=C\C=C(/C)C(=O)NC2=CC(=O)C(NCc3cn(C/C=C/c4ccccc4)nn3)=C(C[C@@H](C)C[C@H](OC)[C@H](O)[C@@H](C)/C=C(\C)[C@@H]1OC(N)=O)C2=O | 1160 | 1110 | – | – | 1080 | 3380 | – | -0.884
CO[C@H]1/C=C\C=C(/C)C(=O)NC2=CC(=O)C(NCc3cn([C@]4(C#N)O[C@H](COC(C)=O)[C@H](OC(C)=O)[C@H](OC(C)=O)[C@H]4OC(C)=O)nn3)=C(C[C@@H](C)C[C@H](OC)[C@H](O)[C@@H](C)/C=C(\C)[C@@H]1OC(N)=O)C2=O | 910 | 760 | 1.37 | 1.33 | 940 | 1250 | 1.64 | –
CO[C@H]1/C=C\C=C(/C)C(=O)NC2=CC(=O)C(NCc3cn(CC4CCOCC4)nn3)=C(C[C@@H](C)C[C@H](OC)[C@H](O)[C@@H](C)/C=C(\C)[C@@H]1OC(N)=O)C2=O | 960 | 970 | 1.92 | 2 | 920 | 1840 | 1.9 | –
CO[C@H]1/C=C\C=C(/C)C(=O)NC2=CC(=O)C(NCc3cn([C@@H]4O[C@H](CO)[C@@H](O)[C@H](O)[C@H]4O)nn3)=C(C[C@@H](C)C[C@H](OC)[C@H](O)[C@@H](C)/C=C(\C)[C@@H]1OC(N)=O)C2=O | 740 | 600 | 1.36 | 1.87 | 540 | 1010 | 1.68 | –
CO[C@H]1/C=C\C=C(/C)C(=O)NC2=CC(=O)C(NCCN=[N+]=[N-])=C(C[C@@H](C)C[C@H](OC)[C@H](O)[C@@H](C)/C=C(\C)[C@@H]1OC(N)=O)C2=O | 940 | 910 | 2.19 | 2.17 | 950 | 2060 | 2.26 | –
CO[C@H]1/C=C\C=C(/C)C(=O)NC2=CC(=O)C(NCc3cn([C@@H]4O[C@H](COCc5ccccc5)[C@@H](OCc5ccccc5)[C@H](OCc5ccccc5)[C@H]4NC(C)=O)nn3)=C(C[C@@H](C)C[C@H](OC)[C@H](O)[C@@H](C)/C=C(\C)[C@@H]1OC(N)=O)C2=O | 770 | 930 | 1.96 | 1.91 | 790 | 1510 | 1.62 | –
CO[C@H]1/C=C\C=C(/C)C(=O)NC2=CC(=O)C(NCc3cn(CC4OCCO4)nn3)=C(C[C@@H](C)C[C@H](OC)[C@H](O)[C@@H](C)/C=C(\C)[C@@H]1OC(N)=O)C2=O | 1790 | 1770 | 1.71 | 1.77 | 1730 | 3060 | 1.73 | –
CO[C@H]1/C=C\C=C(/C)C(=O)NC2=CC(=O)C(NCc3cn(CCCOS(=O)(=O)c4ccc(C)cc4)nn3)=C(C[C@@H](C)C[C@H](OC)[C@H](O)[C@@H](C)/C=C(\C)[C@@H]1OC(N)=O)C2=O | 440 | 460 | – | – | 450 | 440 | – | 1.41
